Experimental data taken from ChEMBL document CHEMBL1667848, “Synthesis and evaluation of trehalose-based compounds as anti-invasive agents” (Bioorg Med Chem Lett, 2011).
≈ marks a conversion by molar mass, not a printed value.

Tests used:
[1] = Antiinvasive activity against mouse 26-L5 cells by transwell migration assay; format: functional, cell-based
[2] = Antiinvasive activity against mouse 26-L5 cells at 1 ug/ml by transwell migration assay; format: functional
[3] = Cytotoxicity against mouse 26-L5 cells upto 10 ug/ml; format: cell-based

SMILES | IC50 ([1]; Mus musculus, read-out: IC50) [µg/mL] | IC50 [1] | inhibition at 1 µg/mL [2] [%] | Activity [3]
Cc1cc(O)cc(O)c1C(=O)OC[C@H]1O[C@H](O[C@H]2O[C@H](COC(=O)c3c(C)cc(O)cc3O)[C@@H](O)[C@H](O)[C@H]2O)[C@H](O)[C@@H](O)[C@@H]1O [BRARTEMICIN] | 0.25 (≈ 0.389 µM) | – | – | Non-toxic
COc1ccc(C(=O)OC[C@H]2O[C@H](O[C@H]3O[C@H](COC(=O)c4ccc(OC)cc4)[C@@H](O)[C@H](O)[C@H]3O)[C@H](O)[C@@H](O)[C@@H]2O)cc1 | – | Not Active | – | Non-toxic
COc1cc(C(=O)OC[C@H]2O[C@H](O[C@H]3O[C@H](COC(=O)c4cc(OC)c(OC)c(OC)c4)[C@@H](O)[C@H](O)[C@H]3O)[C@H](O)[C@@H](O)[C@@H]2O)cc(OC)c1OC | – | Not Active | – | Non-toxic
COc1ccccc1C(=O)OC[C@H]1O[C@H](O[C@H]2O[C@H](COC(=O)c3ccccc3OC)[C@@H](O)[C@H](O)[C@H]2O)[C@H](O)[C@@H](O)[C@@H]1O | 1 (≈ 1.64 µM) | – | – | Non-toxic
O=C(OC[C@H]1O[C@H](O[C@H]2O[C@H](COC(=O)c3ccc(O)cc3)[C@@H](O)[C@H](O)[C@H]2O)[C@H](O)[C@@H](O)[C@@H]1O)c1ccc(O)cc1 | 1 (≈ 1.72 µM) | – | – | Non-toxic
COc1cccc(C(=O)OC[C@H]2O[C@H](O[C@H]3O[C@H](COC(=O)c4cccc(OC)c4OC)[C@@H](O)[C@H](O)[C@H]3O)[C@H](O)[C@@H](O)[C@@H]2O)c1OC | 0.1 (≈ 0.149 µM) | – | – | Non-toxic
Cc1ccccc1C(=O)OC[C@H]1O[C@H](O[C@H]2O[C@H](COC(=O)c3ccccc3C)[C@@H](O)[C@H](O)[C@H]2O)[C@H](O)[C@@H](O)[C@@H]1O | – | Not Active | – | Non-toxic
O=C(OC[C@H]1O[C@H](O[C@H]2O[C@H](COC(=O)c3ccccc3O)[C@@H](O)[C@H](O)[C@H]2O)[C@H](O)[C@@H](O)[C@@H]1O)c1ccccc1O | < 1 | – | 35 | Non-toxic

More lines, main results first:

IC50 ([1]; Mus musculus, read-out: IC50) [µg/mL] | IC50 [1] | SMILES | inhibition at 1 µg/mL [2] [%] | Activity [3]
< 1 | – | O=C(OC[C@H]1O[C@H](O[C@H]2O[C@H](COC(=O)c3cccc(O)c3O)[C@@H](O)[C@H](O)[C@H]2O)[C@H](O)[C@@H](O)[C@@H]1O)c1cccc(O)c1O | 40 | Non-toxic
1 (≈ 1.61 µM) | – | O=C(OC[C@H]1O[C@H](O[C@H]2O[C@H](COC(=O)c3c(F)cccc3F)[C@@H](O)[C@H](O)[C@H]2O)[C@H](O)[C@@H](O)[C@@H]1O)c1c(F)cccc1F | – | Non-toxic
– | Not Active | COc1cc(C(=O)OC[C@H]2O[C@H](O[C@H]3O[C@H](COC(=O)c4ccc(F)c(OC)c4)[C@@H](O)[C@H](O)[C@H]3O)[C@H](O)[C@@H](O)[C@@H]2O)ccc1F | – | Non-toxic
1 (≈ 1.5 µM) | – | CCNc1cccc(C)c1C(=O)OC[C@H]1O[C@H](O[C@H]2O[C@H](COC(=O)c3c(C)cccc3NCC)[C@@H](O)[C@H](O)[C@H]2O)[C@H](O)[C@@H](O)[C@@H]1O | – | Non-toxic
